From ChEMBL document CHEMBL1133840, “Enols as potent antibacterial agents” (2001) come the findings set out here.

Converted amounts (≈) assume the structure as drawn.

Holding throughout (format): functional
The test system of test [1] is Pseudomonas aeruginosa. Put plainly: Evaluated for its antibacterial activity against Pseudomonas aeruginosa UC 6676.
Test [2] concerns Staphylococcus epidermidis. Briefly: Evaluated for its antibacterial activity against Staphylococcus epidermidis UC 12084.
Test [3] relates to Klebsiella pneumoniae. Briefly: Evaluated for its antibacterial activity against Klebsiella pneumoniae UC 12081.
In test [4] the test system is Streptococcus pneumoniae. Briefly: Evaluated for its antibacterial activity against Streptococcus pneumoniae UC 9912.
The test system of test [5] is Escherichia coli. Put plainly: Evaluated for its antibacterial activity against Escherichia coli UC 6674.
Test [6] deals with Staphylococcus aureus. Put plainly: Evaluated for its antibacterial activity against Staphylococcus aureus UC 9218.
The subject of test [7] is Enterococcus faecalis. Briefly: Evaluated for its antibacterial activity against Enterococcus faecalis UC 9217.
Test [8] has as its system Haemophilus influenzae. Put plainly: Evaluated for its antibacterial activity against Haemophilus influenzae 30063.
The subject of test [9] is Staphylococcus aureus. Put plainly: Antibacterial activity against Staphylococcus aureus UC 9218 in the presence of 10% serum.
Test [10] relates to Staphylococcus aureus. Put plainly: Antibacterial activity against Staphylococcus aureus UC 9218 in the presence of 5% serum.
Test [11] relates to Staphylococcus aureus. Put plainly: Antibacterial activity against Staphylococcus aureus UC 9218 in the presence of 0% serum.

With `CSCC(=O)N(CCc1cccc(C(F)(F)F)c1)c1cccc2ccccc12`, the MIC in test [1], in [2], in test [3], in test [4], in test [5] and in test [6] was more than 128 µg/mL each time. Further, the MIC in [7] and in test [8] was more than 128 µg/mL each time.

Regarding `O=C(CC(=O)C(F)(F)F)N(CCc1cccc(C(F)(F)F)c1)c1cccc2ccccc12`, the MIC was 64 µg/mL in test [9]; more than 128 µg/mL in test [1]; 2 µg/mL (≈ 4.41 µM) in test [2]; more than 128 µg/mL in test [3]; 8 µg/mL (≈ 17.6 µM) in [4]; more than 128 µg/mL in test [5]. Moreover, the MIC in test [6] amounted to 2 µg/mL (≈ 4.41 µM); in test [7] it was 4 µg/mL (≈ 8.82 µM); in test [8], 8 µg/mL (≈ 17.6 µM); in test [10], 16 µg/mL; in test [11] it was 2 µg/mL.

On to `FC(F)(F)c1cccc(CCNc2ccc3ccccc3c2)c1`, for which the MIC in test [9] was 64 µg/mL; in test [1], more than 128 µg/mL; in test [2], 2 µg/mL (≈ 6.34 µM); in test [3] it was more than 128 µg/mL; in test [4], 2 µg/mL (≈ 6.34 µM); in [5], more than 128 µg/mL. Further, the MIC was 4 µg/mL (≈ 12.7 µM) in test [6]; more than 1 µg/mL in [7]; 4 µg/mL (≈ 12.7 µM) in [8]; 32 µg/mL in test [10]; 4 µg/mL in [11].

Turning to `Clc1ccc(CCNc2cccc3ccccc23)c(Cl)c1`, the MIC was 64 µg/mL in test [9]; more than 128 µg/mL in test [1]; 1 µg/mL (≈ 3.16 µM) in test [2]; more than 128 µg/mL in test [3]; 2 µg/mL (≈ 6.32 µM) in test [4]; more than 128 µg/mL in [5]. In addition, the MIC worked out at 2 µg/mL (≈ 6.32 µM) in [6]; 1 µg/mL (≈ 3.16 µM) in test [7]; 1 µg/mL (≈ 3.16 µM) in test [8]; 16 µg/mL in test [10]; 2 µg/mL in test [11].

As for `COc1ccc(OC)c(CCNc2cccc3ccccc23)c1`, the MIC is 128 µg/mL in test [9]; more than 128 µg/mL in test [1]; 16 µg/mL (≈ 52.1 µM) in [2]; more than 128 µg/mL in test [3]; 16 µg/mL (≈ 52.1 µM) in [4]; more than 128 µg/mL in test [5]. Also, the MIC was found to be 16 µg/mL (≈ 52.1 µM) in test [6]; 16 µg/mL (≈ 52.1 µM) in test [7]; 32 µg/mL (≈ 104 µM) in test [8]; 32 µg/mL in test [10]; 16 µg/mL in [11].

Take `C[S+]([O-])CC(=O)N(CCc1cccc(C(F)(F)F)c1)c1cccc2ccccc12` (stereo not drawn): the MIC was more than 128 µg/mL in test [1]; 128 µg/mL (≈ 305 µM) in [2]; more than 128 µg/mL in test [3]; 64 µg/mL (≈ 153 µM) in [4]; more than 128 µg/mL in test [5]; 128 µg/mL (≈ 305 µM) in test [6]. The MIC in [7] and in [8] was more than 128 µg/mL each time.

Take `CCc1cccc2ccccc12`: the MIC was more than 128 µg/mL in test [9]; more than 128 µg/mL in [1]; 128 µg/mL (≈ 819 µM) in [2]; more than 128 µg/mL in [3]; 32 µg/mL (≈ 205 µM) in test [4]; more than 128 µg/mL in test [5]. The MIC in test [6] was 128 µg/mL (≈ 819 µM); in test [7], 128 µg/mL (≈ 819 µM); in [8] it was more than 128 µg/mL; in [10], more than 128 µg/mL; in test [11] it was 128 µg/mL.

For `FC(F)(F)c1cccc(CNc2cccc3ccccc23)c1`, the MIC was more than 128 µg/mL in [1]; 4 µg/mL (≈ 13.3 µM) in [2]; more than 128 µg/mL in test [3]; 8 µg/mL (≈ 26.6 µM) in test [4]; more than 128 µg/mL in [5]; 2 µg/mL (≈ 6.64 µM) in test [6]. The MIC in test [7] was found to be 2 µg/mL (≈ 6.64 µM); in test [8], 32 µg/mL (≈ 106 µM); in test [11], 2 µg/mL.

Turning to `Cc1ccccc1NCCc1cccc(C(F)(F)F)c1`, the MIC in [9] is 32 µg/mL; in [1], more than 128 µg/mL; in test [2] it was 2 µg/mL (≈ 7.16 µM); in test [3] it was more than 128 µg/mL; in test [4], 1 µg/mL (≈ 3.58 µM); in [5], more than 128 µg/mL. The MIC in [6] amounted to 4 µg/mL (≈ 14.3 µM); in [7], 2 µg/mL (≈ 7.16 µM); in test [8] it was 4 µg/mL (≈ 14.3 µM); in [10] it was 16 µg/mL; in [11] it was 4 µg/mL.

Take `O=C(CO)N(CCc1cccc(C(F)(F)F)c1)c1cccc2ccccc12`: the MIC in test [1] was more than 128 µg/mL; in test [2] it was more than 128 µg/mL; in [3] it was more than 128 µg/mL; in test [4], 32 µg/mL (≈ 85.7 µM); in [5], more than 128 µg/mL; in [6] it was 32 µg/mL (≈ 85.7 µM). The MIC in test [7] and in test [8] was more than 128 µg/mL throughout.

On to `c1ccc(-c2ccc(CCNc3cccc4ccccc34)cc2)cc1`, for which the MIC in test [9] was 128 µg/mL; in test [1] it was more than 128 µg/mL; in test [2] it was 8 µg/mL (≈ 24.7 µM); in test [3] it was more than 128 µg/mL; in test [4], 16 µg/mL (≈ 49.5 µM); in test [5] it was more than 128 µg/mL. Besides, the MIC in test [6] came out at 8 µg/mL (≈ 24.7 µM); in test [7], 2 µg/mL (≈ 6.18 µM); in test [8], 64 µg/mL (≈ 198 µM); in [10], 64 µg/mL; in test [11], 8 µg/mL.

On to `CC(=O)C(C#N)C(=O)N(CCc1cccc(C(F)(F)F)c1)c1cccc2ccccc12` (stereo not drawn), for which the MIC in test [9] was 128 µg/mL; in test [1] it was more than 128 µg/mL; in [2], 4 µg/mL (≈ 9.42 µM); in [3] it was more than 128 µg/mL; in test [4], 2 µg/mL (≈ 4.71 µM); in [5] it was more than 128 µg/mL. Also, the MIC was 8 µg/mL (≈ 18.8 µM) in [6]; 4 µg/mL (≈ 9.42 µM) in [7]; more than 128 µg/mL in test [8]; 128 µg/mL in test [10]; 8 µg/mL in [11].

As for `CC(=O)CC(=O)N(CCc1cccc(C(F)(F)F)c1)c1cccc2ccccc12`, the MIC in [1] was more than 128 µg/mL; in test [2], more than 128 µg/mL; in test [3] it was more than 128 µg/mL; in test [4] it was 32 µg/mL (≈ 80.1 µM); in [5], more than 128 µg/mL; in [6], more than 128 µg/mL. Besides, the MIC in [7] and in test [8] was more than 128 µg/mL each time.

On to `N#CCC(=O)N(CCc1cccc(C(F)(F)F)c1)c1cccc2ccccc12`, for which the MIC in test [1] is more than 128 µg/mL; in test [2], more than 128 µg/mL; in [3] it was more than 128 µg/mL; in test [4], 16 µg/mL (≈ 41.8 µM); in [5], more than 128 µg/mL; in [6], more than 128 µg/mL. The MIC in test [7] and in test [8] was more than 128 µg/mL in each case.

Consider `CO/N=C(\C(=O)N[C@@H]1C(=O)N2C(C(=O)O)=C(COC(C)=O)CS[C@H]12)c1csc(N)n1` [CEFOTAXIME], for which the MIC in test [1] stood at 16 µg/mL (≈ 35.1 µM); in test [3], 0.06 µg/mL (≈ 0.132 µM); in test [5] it was 0.06 µg/mL (≈ 0.132 µM); in test [8] it was 0.015 µg/mL (≈ 0.0329 µM).

In the case of `CN[C@H](CC(C)C)C(=O)N[C@H]1C(=O)N[C@@H](CC(N)=O)C(=O)N[C@H]2C(=O)N[C@H]3C(=O)N[C@H](C(=O)N[C@H](C(=O)O)c4cc(O)cc(O)c4-c4cc3ccc4O)[C@H](O)c3ccc(c(Cl)c3)Oc3cc2cc(c3O[C@@H]2O[C@H](CO)[C@@H](O)[C@H](O)[C@H]2O[C@H]2C[C@](C)(N)[C@H](O)[C@H](C)O2)Oc2ccc(cc2Cl)[C@H]1O` [VANCOMYCIN], the figures for the MIC in test [4] and in test [7] were 0.25 µg/mL (≈ 0.173 µM) and 1 µg/mL (≈ 0.69 µM), respectively.
